# Values quoted from earlier work, collected in PMC5520971 (Organic & biomolecular chemistry, 2017).
# Assays:
# [1] = system: hepatocellular carcinoma cells; settings: ref [18]
# [2] = system: hepatocellular carcinoma cells; settings: ref [18]; remark: listed apart in the source
smiles,measurement,setting,value
CC1=C(/C=C/C(C)=C/C=C/C(C)=C/C(=O)O)C(C)(C)CCC1 [all-trans retinoic acid],growth of hepatocellular carcinoma cells in a mouse xenograft model,[1],selectively inhibited the growth
same,growth of hepatocellular carcinoma cells in vitro,[2],selectively inhibited the growth
